The text below walks through data of patent US9856225B2, “Substituted phenazines as antimicrobial agents” (University of Florida Research Foundation, Incorporated, priority 2013, dated 2018).

Format in all cases: cell-based
Assay [1] has as its system Staphylococcus aureus (ATCC 25923). Nature of the assay: MIC broth microdilution (CLSI), Luria Broth. Particulars: Staphylococcus aureus. As to the method:
(§1) Antibiotic Susceptibility Tests (MIC Assay Protocol). The minimum inhibitory concentration (MIC) for each compound described herein was determined by the broth microdilution method as recommended by the Clinical and Laboratory Standards Institute (CLSI) (Clinical and Laboratory Standards Institute. 2009. Methods for dilution antimicrobial susceptibility tests for bacteria that grow aerobically; approved standard, eighth edition (M7-A8)). In a 96-well plate, eleven two-fold serial dilutions of each compound were made in a final volume of 100 μL Luria Broth (one column served as a blank; see the MIC assay described herein). Each well was inoculated with 10^5 bacterial cells at the initial time of incubation, prepared from a fresh log phase culture (OD600 of 0.5). […] The concentration range tested for each compound during this study was 0.10 to 100 μM. DMSO served as the vehicle and negative control in each microdilution MIC assay. DMSO was serially diluted at the same concentration as the compounds with a top concentration of 1% v/v. Bacterial strains used: Staphylococcus aureus (ATCC 25923), Staphylococcus epidermidis (ATCC 12228) and Pseudomonas aeruginosa (PAO1). Kanamycin was used as a positive control against Staphylococcus aureus and Staphylococcus epidermidis.

The test system of assay [2] is Staphylococcus epidermidis (ATCC 12228). In words: MIC broth microdilution (CLSI), Luria Broth. As to the method:
as §1
On the technique in general: In broth dilution the organism is exposed to a series of concentrations in liquid medium.

Assay [3] relates to Pseudomonas aeruginosa (PAO1). In words: MIC broth microdilution (CLSI), Luria Broth. As for the experimental part:
as §1

The subject of assay [4] is Acinetobacter baumannii (ATCC 19606) biofilm. In words: Biofilm inhibition, Mueller-Hinton broth, crystal violet. To be noted: Acinetobacter baumannii, ATCC19606; A. baumannii ATCC 19606; 100 μM; read-out: % Biofilm Inhibition at 100 μM. As to the method: (§2) Biofilm Inhibition Protocol for A. baumannii (ATCC 19606): In a 96-well plate, ten two-fold serial dilutions of each compound tested were made from the highest concentration tested (100 μM) in a final volume of 100 μL in Mueller-Hinton broth (one column served as a blank). Each well was inoculated with ˜7×10^6 colony forming units per milliliter (corresponding to an OD600 of 0.01 prepared directly from an overnight culture). A lid was placed on the 96-well plate which was wrapped in suran wrap, placed in a humidifying chamber and incubated under static conditions at 37° C. for 24 hours. Following incubation, the media and planktonic bacteria were then removed from 96-well plates and the wells were then washed with water. The bacterial biofilms within the microtiter wells were stained with 200 μL of an aqueous 0.1% crystal violet solution that was allowed to stand for 10-20 minutes. The crystal violet stain was then removed, the wells were rinsed with water and dried. The crystal violet stain that remained on the inside of the wells (i.e., stained bacterial biofilm) on the inside of the wells was solubilized by the addition of 200 μL ethanol and absorbance was read at OD540 using a spectrophotometer. NOTE: The concentration range tested for each compound was 0.2-100 μM. Single data points for all compounds and DMSO controls were tested in two replicate rows in 96-well plates and corresponding absorbance readings were averaged for the quantification of planktonic growth and biofilm formation. Reported percent biofilm inhibition was determined by the comparison of compound treated wells (the average of the two replicate wells) versus vehicle control wells without compound following background subtraction (i.e., an empty, untreated well) and reported from 2 to 4 independent overnight cultures. DMSO was serially diluted at the same concentration as test compounds with a top concentration of 1% v/v.
(§3) The bromophenazines were also evaluated against the Gram-negative bacterium Acinetobacter baumannii in order to identify biofilm modulating small molecules against this emerging pathogen. Acinetobacter baumannii is notorious for its ability to persist as bacterial biofilms on hospital surfaces, giving rise to many multidrug-resistant nosocomial infections. Clinical isolates of A. baumannii have been identified that are resistant to every class of antibiotic clinically used. The bromophenazines were evaluated against Acinetobacter baumannii ATCC 19606 in biofilm inhibition assays. Bromophenazines were allowed to incubate in 96-well plates with Acinetobacter baumannii (˜7×10^6 CFUmL^−1 by adjusting an overnight culture to an OD600˜0.01) for 24 hours at 37° C. using Mueller-Hinton broth followed by spectrophometer readings of each plate to evaluate planktonic growth (OD600) and biofilm formation (OD540 after crystal violet stain of biofilms inside microtiter wells). […] This biofilm inhibition with activation of planktonic growth activity was dose-dependent with bromophenazine 17a (see FIG. 20).

The test system of assay [5] is Staphylococcus aureus (ATCC 25923) biofilm. Nature of the assay: Biofilm inhibition, crystal violet staining. Set-up: MIC/IC50 Biofilm: unit not given here. Particulars: S. aureus ATCC 25923; for Phenotype: planktonic growth vs biofilm formation; for IC50: Staphylococcus aureus, ATCC25923, single replicate screen, read-out: Biofilm Inhibition IC50; for MIC/IC50 Biofilm: ratio of MIC to IC50 of biofilm inhibition. As for the experimental part:
Biofilm Inhibition Protocol for S. aureus (ATCC 25923). A serial two-fold dilution of 2× bromophenazine small molecule concentration was made in 100 μL tryptic soy broth (TSB) medium with 0.5% glucose were delivered into 0.1% gelatin (Millipore) coated 96-well tissue culture plates. […] To each well, 100 μL of TSB with 0.5% glucose containing 2×10^6 CFU/mL Staphylococcus aureus cells, prepared from fresh culture (OD600 of 0.8), was added. The plates were incubated at 37° C. for 24 hours. The wells were gently rinsed by submerging the entire plates in a tub of cold, running tap water. The wells were then fixed with 200 μL methanol for 15 minutes. After the plates were air dried, the biofilms were stained with 100 μL of 1% crystal violet for 10 minutes. The plates were again rinsed with running water. After drying in air, quantitative assessment of biofilm formation was obtained by extracting the crystal violet associated with the remaining biofilm with 100 μL per well of the following bleaching solution (methanol:glacial acetic acid:water (v/v/v)=4:1:5). This bleaching solution dissolved the bound crystal violet and produced a violet-colored solution in each well. The intensity of coloration was determined by measuring the absorbance at 540 nm.

The subject of assay [6] is Acinetobacter baumannii (ATCC 19606). Nature of the assay: Planktonic growth (OD600) in biofilm inhibition assay. Particulars: for inhibition of growth at 100 µM: Acinetobacter baumannii, ATCC19606, 24 h, A. baumannii ATCC 19606, * = no growth inhibition at 200 μM, read-out: % Growth Inhibition at 100 μM; for inhibition of growth at 100 µM / increase in planktonic growth: 100 μM; for increase in planktonic growth: OD600. As to the method:
as §2, with “Each” for “Biofilm Inhibition Protocol for A. baumannii (ATCC 19606): In a 96-well plate, ten two-fold serial dilutions of each compound tested were made from the highest concentration tested (100 μM) in a final volume of 100 μL in Mueller-Hinton broth (one column served as a blank). Each”, “NOTE: The concentration range tested for each compound was 0.2-100 μM.” left out
as §3

[7] abbreviates: ATCC25923, Table 1, ATCC 25923, range tested 0.10 to 100 μM, read-out: Staphylococcus aureus MIC.
[8] abbreviates: ATCC25923, Table 1, ATCC 25923, read-out: Staphylococcus aureus MIC.
Where [9] appears, read: ATCC12228, Table 1, ATCC 12228, read-out: Staphylococcus epidermidis MIC.
The mark [10] stands for this setting: Table 1, PAO1, read-out: Pseudomonas aeruginosa MIC.
Where [11] appears, read: ATCC25923, Table 2, S. aureus ATCC 25923, Luria Broth, read-out: MIC.

Values joined by “and” are separate entries in the source; they are usually repeats but may differ in a detail not shown here. Equal values may be shown once. Read-outs that look alike come from different tables or passages of the source. Some results are limits rather than exact numbers.

As for `O=C(O)c1cccc2nc3cc(Br)ccc3nc12` [Compound 9, 7-Bromophenazine-1-carboxylic acid], the MIC in assay [1] (setting [7]) is 100 µM; in assay [1] (setting [8]), 30.3 µg/mL; in assay [2] (setting [9]) it was 100 µM and 30.3 µg/mL; in assay [3] (setting [10]) it was over 100 µM.

As to `Nc1cccc2nc3ccccc3nc12` [Compound 6, Phenazin-1-amine], the MIC was over 100 µM in assay [1] (setting [7]); over 19.6 µg/mL in assay [1] (setting [8]); > 100 µM and > 19.6 µg/mL in assay [2] (setting [9]); over 100 µM in assay [3] (setting [10]).

Consider `O=C(O)c1cccc2c1nc1ccccc1[n+]2[O-]` [Compound 7, 1-Carboxyphenazine 5-oxide], for which the MIC in assay [1] (setting [7]) is over 100 µM; in assay [1] (setting [8]), over 24.1 µg/mL; in assay [2] (setting [9]), > 100 µM and > 24.1 µg/mL; in assay [3] (setting [10]), over 100 µM.

Regarding `Nc1cccc2nc3cc(Br)ccc3nc12` [Compound 14, 7-Bromophenazin-1-amine], the figures for the MIC in assay [1] (setting [7]), in assay [1] (setting [8]) and in assay [3] (setting [10]) were over 100 µM, over 27.4 µg/mL and over 100 µM, respectively.

In the case of `COc1ccc(Br)c2nc3ccccc3nc12` [Compound 19, 1-Bromo-4-methoxyphenazine], the figures for the MIC in assay [1] (setting [7]), in assay [1] (setting [8]) and in assay [3] (setting [10]) were over 100 µM, over 28.9 µg/mL and over 100 µM, respectively.

As for `Oc1cccc2nc3ccccc3nc12` [Compound 2, 1-Hydroxyphenazine, reference compound], the MIC was > 100 µM and > 19.7 µg/mL in assay [1] (ATCC25923, read-out: Staphylococcus aureus MIC); > 100 µM and > 19.7 µg/mL in assay [2] (ATCC12228, read-out: Staphylococcus epidermidis MIC); over 100 µM in assay [3] (PAO1, read-out: Pseudomonas aeruginosa MIC).

In the case of `Nc1c(Br)cc(Br)c2nc3ccccc3nc12` [Compound 17, 2,4-Dibromophenazin-1-amine], the MIC in assay [1] (setting [7]) was over 100 µM; in assay [1] (setting [8]) it was over 35.4 µg/mL; in assay [3] (setting [10]) it was over 100 µM.

Take `CC(C)C(=O)Oc1c(Br)cc(Br)c2nc3ccccc3nc12` [Compound 22, 2,4-Dibromophenazin-1-yl isobutyrate]: the inhibition at 100 µM in assay [4] is 26 ± 12%. The Phenotype result in assay [5] is listed as “antibacterial”. For the same compound, in assay [5], the IC50 is 990 nM. In addition, in assay [5], the “MIC/IC50 Biofilm” value turned out to be 1.6. Further, the MIC was 1.56 µM in assay [1] (setting [7]); 0.66 µg/mL in assay [1] (setting [8]); 1.56 µM in assay [1] (setting [11]); 1.56 µM and 0.66 µg/mL in assay [2] (setting [9]). The inhibition of growth at 100 µM in assay [6] is -13 ± 5%.

In the case of `Nc1c(Br)cc(Br)c2nc3cc(Br)ccc3nc12` [Compound 16, 2,4,7-Tribromophenazin-1-amine], the MIC in assay [1] (setting [7]) was over 100 µM; in assay [1] (setting [8]) it was over 43.2 µg/mL; in assay [3] (setting [10]), over 100 µM.

Turning to `COc1cc2nc3c(C(=O)O)cccc3nc2c(OC)c1OC` [Compound 12, 6,7,8-Trimethoxyphenazine-1-carboxylic acid], the MIC in assay [1] (setting [7]) is over 100 µM; in assay [1] (setting [8]), over 31.5 µg/mL; in assay [2] (setting [9]), > 100 µM and > 31.5 µg/mL; in assay [3] (setting [10]), over 100 µM.

`NC(=O)c1cccc2nc3cc(Br)ccc3nc12` [Compound 15, 7-Bromophenazine-1-carboxamide]: the values for the MIC in assay [1] (setting [7]), in assay [1] (setting [8]) and in assay [3] (setting [10]) were over 100 µM, over 30.2 µg/mL and over 100 µM, respectively.

Regarding `Oc1ccc(Br)c2nc3ccccc3nc12` [Compound 20, 4-Bromophenazin-1-ol], the MIC is over 100 µM in assay [1] (setting [7]), over 27.5 µg/mL in assay [1] (setting [8]) and over 100 µM in assay [3] (setting [10]).

As to `NC[C@H]1O[C@H](O[C@H]2[C@H](O)[C@@H](O[C@H]3O[C@H](CO)[C@@H](O)[C@H](N)[C@H]3O)[C@H](N)C[C@@H]2N)[C@H](O)[C@@H](O)[C@@H]1O` [Kanamycin, reference compound], the MIC in assay [1] (setting [7]) was 1.56 to 6.25 µM; in assay [1] (setting [8]) it was 0.76 to 3.03 µg/mL; in assay [2] (setting [9]), 0.78 µM to 1.56 µM and 0.38 µg/mL to 0.76 µg/mL.

On to `O=C(Oc1c(Br)cc(Br)c2nc3ccccc3nc12)c1ccc2ccccc2c1` [Compound 21a], for which, in assay [4], the inhibition at 100 µM amounted to 35 ± 9%. In addition, in assay [5], the Phenotype entry was “inactive” and the IC50 was over 100000 nM. For the same compound, in assay [1] (setting [11]), the MIC is over 100 µM. In addition, in assay [6], the “increase in planktonic growth” value is recorded as about 15%, the “planktonic growth inhibition at 200 μM” value is recorded as “did not inhibit planktonic growth” and the inhibition of growth at 100 µM is -15 ± 6%.

As for `O=C(Oc1c(Br)cc(Br)c2nc3ccccc3nc12)c1cccc(Br)c1` [Compound 25, 2,4-Dibromophenazin-1-yl 3-bromobenzoate], the inhibition at 100 µM in assay [4] was 49 ± 6%. Moreover, in assay [5], the Phenotype entry is listed as “antibacterial”, the IC50 came to 930 nM and the “MIC/IC50 Biofilm” value came out at 3.4. Moreover, the MIC in assay [1] (setting [7]) worked out at 3.13 µM. The MIC in assay [1] (setting [8]) turned out to be 1.68 µg/mL. Moreover, the MIC in assay [1] (setting [11]) stood at 3.13 µM. Besides, in assay [2] (setting [9]), the MIC was 3.13 µM and 1.68 µg/mL. In assay [6], the “increase in planktonic growth” value is about 15%, the “planktonic growth inhibition at 200 μM” value was “did not inhibit planktonic growth” and the inhibition of growth at 100 µM was -18 ± 4%.

In general, MIC refers to the smallest concentration in the dilution series that meets the test's criterion for growth inhibition. A word on the inhibition: it is the relative decrease from the control value, in per cent. In general, IC50 refers to the concentration needed to halve the response being measured.
